Consider 5 molecules from US20230393140A1, “BINDING ASSAYS INVOLVING A PLURALITY OF SYNTHETIC COMPOUNDS, TARGETS, AND COUNTER TARGETS” (SRI International, priority 2020, published 2023).

The pKd is the negative decadic logarithm of the Kd, by convention in mol/L. The term Kd denotes the constant that tells how readily two partners part at equilibrium.

pKd: −log10 of the molar value. Read-outs that look alike come from different tables or passages of the source. Numbered stars: 1 amine (or outer) side, 2 acyl side, 3 side chain; on linkers, the order of the positions; unused ones are H or OH. Square brackets hold non-standard residues; d marks the D form. Peptide text beside a SMILES is read from it. * marks the point of attachment. 5FAM = O=C1OC2(c3ccc(O)cc3Oc3cc(O)ccc32)c2ccc(C(=O)*)cc21; NHCH2C6H4(4-CH2CONH2) = NC(=O)Cc1ccc(CN*)cc1; X1 = O=C(Cc1ccc(CN[*:1])cc1)[*:2]

Experiment [1] deals with T1, IL-6R (Homo sapiens, UniProt P08887).
T1 construct: purchased Creative Biomart IL6R-584H
T1 sequence (P08887 20-355 limits assumed): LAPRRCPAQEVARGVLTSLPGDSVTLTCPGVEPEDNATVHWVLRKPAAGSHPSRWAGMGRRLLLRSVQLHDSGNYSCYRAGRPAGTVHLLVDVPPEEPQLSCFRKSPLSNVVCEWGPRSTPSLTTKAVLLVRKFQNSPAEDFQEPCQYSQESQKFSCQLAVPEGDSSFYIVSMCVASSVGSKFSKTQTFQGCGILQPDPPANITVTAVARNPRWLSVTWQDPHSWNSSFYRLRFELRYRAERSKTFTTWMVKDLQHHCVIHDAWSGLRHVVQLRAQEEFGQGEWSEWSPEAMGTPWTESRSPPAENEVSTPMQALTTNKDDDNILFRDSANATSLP
As to the kind of experiment: MST binding affinity of resynthesized NNP hits to IL-6R. As to conditions: MST, NNP2 library hit, target SIL-6R, one-site binding model; for Kd: read-out: KD (nM) [95% conf. int]. The method, then:
Hit binding affinity to various targets were determined using Microscale Thermophoresis (MST). MST experiments were performed on a Monolith NT.115pico (NanoTemper Technologies GmbH, Munich, Germany). Measurements were performed at room temperature, in triplicate with incubation periods of 15, 30 and 45 minutes. […] Targets were labeled using Nanotemper Monolith 2nd Generation Protein Labeling Kits. RED-MALEIMIDE (Maleimide-647-dye) labeling kit was used for K-Ras and RED-NHS (NHS-647-dye) labeling kit was used for IL-6, IL-6R, TNFα and ASGPR. The buffer for the ASGPR contained 20 mM HEPES pH 7.4, 150 mM NaCl, 10 mM MgCl2, 2 mM CaCl2, 0.05% Pluronic F-127, and 1 mM DTT; for IL-6 contained 20 mM HEPES pH 7.4, 150 mM KCl, 10 mM MgCl2, and 0.1% Pluronic F-127; for the soluble IL-6 receptor 20 mM HEPES pH 7.4, 150 mM NaCl, 10 mM MgCl2, and 0.05% Tween-20; for K-Ras 20 mM HEPES pH 7.4, 150 mM NaCl, 10 mM MgCl2, 0.05% Tween-20 and 1 mM DTT; for TNFα 10 mM HEPES pH 7.4, 150 mM NaCl, 10 mM MgCl2, 0.05% Polysorbate-20. Triplicate data was analyzed using MO.AffinityAnalysis software (NanoTemper Technologies GmbH).

Experiment [2] deals with TNFα (Homo sapiens, UniProt P01375). As to the kind of experiment: MST binding affinity of resynthesized NNP hits to TNFα. Details: purchased R&D Systems, Inc. 210-TA/CF. The conditions noted are these: read-out: KD (nM) [95% conf. int], NNP2 library hit, target TNFα, one-site binding model. The method in brief:
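Microscale thermophoresis at room temperature, triplicate, 15, 30 and 45 min incubations; targets labeled with RED-NHS 647 dye. Buffers (all 20 mM HEPES pH 7.4 unless noted): IL-6 150 mM KCl, 10 mM MgCl2, 0.1% Pluronic F-127; IL-6R 150 mM NaCl, 10 mM MgCl2, 0.05% Tween-20; TNFα 10 mM HEPES, 150 mM NaCl, 10 mM MgCl2, 0.05% Polysorbate-20; ASGPR adds 2 mM CaCl2, 0.05% Pluronic F-127, 1 mM DTT.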

Chain of TNFα (P01375 77-233 limits assumed): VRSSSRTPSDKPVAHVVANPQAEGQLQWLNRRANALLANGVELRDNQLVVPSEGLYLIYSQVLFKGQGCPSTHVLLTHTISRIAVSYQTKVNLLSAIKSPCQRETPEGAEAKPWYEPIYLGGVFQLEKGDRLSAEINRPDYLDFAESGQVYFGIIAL

On to `CC(C)C[C@H](NC(=O)[C@@H](CCCNC(=N)N)NC(=O)[C@@H](C)NC(=O)Cc1ccc(CNC(=O)[C@H](C)NC(=O)[C@@H](Cc2c[nH]c3ccccc23)NC(=O)[C@@H](CCC(=O)O)NC(=O)Cc2ccc(CNC(=O)[C@H](Cc3ccccc3)NC(=O)[C@@H](CCCCN)NC(=O)[C@@H](CCC(=O)O)NC(=O)Cc3ccc(CNC(=O)[C@H](CC(C)C)NC(=O)[C@@H](CCC(=O)O)NC(=O)[C@@H](CCCCN)NC(=O)Cc4ccc(CNC(=O)[C@H](CC(C)C)NC(=O)[C@H](NC(=O)[C@@H](CC(N)=O)NC(=O)Cc5ccc(CNC(=O)[C@@H](NC(=O)[C@@H](CC(N)=O)NC(=O)[C@H]6CCCN6C(=O)Cc6ccc(CNC(=O)[C@H](Cc7ccccc7)NC(=O)[C@@H](Cc7c[nH]c8ccccc78)NC(=O)[C@@H](CCCNC(=N)N)NC(=O)c7ccc8c(c7)C(=O)OC87c8ccc(O)cc8Oc8cc(O)ccc87)cc6)C(C)C)cc5)[C@H](C)O)cc4)cc3)cc2)cc1)C(=O)NCc1ccc(CC(=O)N[C@H](CCC(=O)O)C(=O)N[C@H](CCCNC(=N)N)C(=O)N[C@H](C(=O)NCc2ccc(CC(=O)N[C@H](Cc3ccccc3)C(=O)N[C@H](CCCCN)C(=O)NCC(=O)NCc3ccc(CC(N)=O)cc3)cc2)C(C)C)cc1` [IL6R-87-1, Fluorescein-(D)Arg-(D)Trp-(L)Phe-PAM-(D)Pro-(D)Asn-(L)Val-PAM-(D)Asn-(D)Thr-(L)Leu-PAM-(D)Lys-(D)Glu-(L)Leu-PAM-(D)Glu-(D)Lys-(L)Phe-PAM-(D)Glu-(D)Trp-(L)Ala-PAM-(D)Ala-(D)Arg- (L)Leu-PAM-(D)Glu-(D)Arg-(L)Val-PAM-(D)Phe-(D)Lys-Gly-PAM] (5FAM-[dR][dW]F[X1][dP][dN]V[X1][dN][dT]L[X1][dK][dE]L[X1][dE][dK]F[X1][dE][dW]A[X1][dA][dR]L[X1][dE][dR]V[X1][dF][dK]G-{NHCH2C6H4(4-CH2CONH2)}), for which, in experiment [1], the pKd was 8.92.
As to `CC(C)C[C@H](NC(=O)[C@@H](CCCNC(=N)N)NC(=O)[C@@H](C)NC(=O)Cc1ccc(CNC(=O)[C@H](CC(C)C)NC(=O)[C@@H](CCCNC(=N)N)NC(=O)[C@@H](CCC(=O)O)NC(=O)Cc2ccc(CNC(=O)[C@H](Cc3ccccc3)NC(=O)[C@@H](CCCCN)NC(=O)[C@@H](CCC(=O)O)NC(=O)Cc3ccc(CNC(=O)[C@H](CC(C)C)NC(=O)[C@@H](CCC(=O)O)NC(=O)[C@@H](CCCCN)NC(=O)Cc4ccc(CNC(=O)[C@H](CC(C)C)NC(=O)[C@H](NC(=O)[C@@H](CC(N)=O)NC(=O)Cc5ccc(CNC(=O)[C@H](Cc6ccccc6)NC(=O)[C@@H](CO)NC(=O)[C@@H](CCC(=O)O)NC(=O)Cc6ccc(CNC(=O)[C@H](CC(C)C)NC(=O)[C@@H](CC(C)C)NC(=O)[C@@H](Cc7ccc(O)cc7)NC(=O)c7ccc8c(c7)C(=O)OC87c8ccc(O)cc8Oc8cc(O)ccc87)cc6)cc5)[C@H](C)O)cc4)cc3)cc2)cc1)C(=O)NCc1ccc(CC(=O)N[C@H](Cc2c[nH]c3ccccc23)C(=O)N[C@H](CCCCN)C(=O)N[C@@H](CC(C)C)C(=O)NCc2ccc(CC(=O)N[C@H](Cc3ccccc3)C(=O)N[C@H](CCCCN)C(=O)NCC(=O)NCc3ccc(CC(N)=O)cc3)cc2)cc1` [IL6R-87-2] (5FAM-[dY][dL]L[X1][dE][dS]F[X1][dN][dT]L[X1][dK][dE]L[X1][dE][dK]F[X1][dE][dR]L[X1][dA][dR]L[X1][dW][dK]L[X1][dF][dK]G-{NHCH2C6H4(4-CH2CONH2)}), the Kd in experiment [1] amounted to 0.8 nM.
As to `CC(C)C[C@H](NC(=O)[C@@H](CCCNC(=N)N)NC(=O)[C@@H](C)NC(=O)Cc1ccc(CNC(=O)[C@H](CC(C)C)NC(=O)[C@@H](CCCNC(=N)N)NC(=O)[C@@H](CCC(=O)O)NC(=O)Cc2ccc(CNC(=O)[C@H](C)NC(=O)[C@@H](CCCCN)NC(=O)[C@@H](Cc3ccc(O)cc3)NC(=O)Cc3ccc(CNC(=O)[C@H](Cc4ccccc4)NC(=O)[C@@H](CC(N)=O)NC(=O)[C@@H](Cc4ccc(O)cc4)NC(=O)Cc4ccc(CNC(=O)[C@H](CC(C)C)NC(=O)[C@H](NC(=O)[C@@H](CC(N)=O)NC(=O)Cc5ccc(CNC(=O)[C@H](Cc6ccccc6)NC(=O)[C@@H](CO)NC(=O)[C@@H](CCC(=O)O)NC(=O)Cc6ccc(CNC(=O)[C@H](Cc7ccccc7)NC(=O)[C@@H](Cc7c[nH]c8ccccc78)NC(=O)[C@@H](CCCNC(=N)N)NC(=O)c7ccc8c(c7)C(=O)OC87c8ccc(O)cc8Oc8cc(O)ccc87)cc6)cc5)[C@H](C)O)cc4)cc3)cc2)cc1)C(=O)NCc1ccc(CC(=O)N[C@H](CCC(=O)O)C(=O)N[C@H](CCCNC(=N)N)C(=O)N[C@H](C(=O)NCc2ccc(CC(=O)N[C@H](Cc3ccccc3)C(=O)N[C@H](CCCCN)C(=O)NCC(=O)NCc3ccc(CC(N)=O)cc3)cc2)C(C)C)cc1` [IL6R-87-3, Fluorescein-(D)Arg-(D)Trp-(L)Phe-PAM-(D)Glu-(D)Ser-(L)Phe-PAM-(D)Asn-(D)Thr-(L)Leu-PAM-(D)Tyr-(D)Asn-(L)Phe-PAM-(D)Tyr-(D)Lys-(L)Ala-PAM-(D)Glu-(D)Arg-(L)Leu-PAM-(D)Ala-(D)Arg- (L)Leu-PAM-(D)Glu-(D)Arg-(L)Val-PAM-(D)Phe-(D)Lys-Gly-PAM] (5FAM-[dR][dW]F[X1][dE][dS]F[X1][dN][dT]L[X1][dY][dN]F[X1][dY][dK]A[X1][dE][dR]L[X1][dA][dR]L[X1][dE][dR]V[X1][dF][dK]G-{NHCH2C6H4(4-CH2CONH2)}), the negative logarithm of the Kd (pKd) in experiment [1] was 7.72.
On to `CC(C)C[C@H](NC(=O)[C@@H](CCCNC(=N)N)NC(=O)[C@@H](C)NC(=O)Cc1ccc(CNC(=O)[C@H](Cc2ccccc2)NC(=O)[C@@H](CCC(=O)O)NC(=O)[C@H]2CCCN2C(=O)Cc2ccc(CNC(=O)[C@@H](NC(=O)[C@@H](CCCNC(=N)N)NC(=O)[C@@H](Cc3c[nH]c4ccccc34)NC(=O)Cc3ccc(CNC(=O)[C@H](CC(C)C)NC(=O)[C@@H](CCC(=O)O)NC(=O)[C@@H](CCCCN)NC(=O)Cc4ccc(CNC(=O)[C@H](Cc5ccccc5)NC(=O)[C@@H](CO)NC(=O)[C@@H](CCCNC(=N)N)NC(=O)Cc5ccc(CNC(=O)[C@H](Cc6ccccc6)NC(=O)[C@@H](CO)NC(=O)[C@@H](CCC(=O)O)NC(=O)Cc6ccc(CNC(=O)[C@H](Cc7ccccc7)NC(=O)[C@H](NC(=O)[C@@H](CC(N)=O)NC(=O)c7ccc8c(c7)C(=O)OC87c8ccc(O)cc8Oc8cc(O)ccc87)C(C)C)cc6)cc5)cc4)cc3)C(C)C)cc2)cc1)C(=O)NCc1ccc(CC(=O)N2CCC[C@@H]2C(=O)N[C@H](CCCNC(=N)N)C(=O)N[C@@H](C)C(=O)NCc2ccc(CC(=O)N[C@H](Cc3ccccc3)C(=O)N[C@H](CCCNC(=N)N)C(=O)NCC(=O)NCc3ccc(CC(N)=O)cc3)cc2)cc1` [IL6R-87-4] (5FAM-[dN][dV]F[X1][dE][dS]F[X1][dR][dS]F[X1][dK][dE]L[X1][dW][dR]V[X1][dP][dE]F[X1][dA][dR]L[X1][dP][dR]A[X1][dF][dR]G-{NHCH2C6H4(4-CH2CONH2)}), for which the Kd in experiment [1] amounted to 22 nM.
Turning to `CC(C)C[C@H](NC(=O)[C@@H](CCCNC(=N)N)NC(=O)CNC(=O)Cc1ccc(CNC(=O)[C@H](CC(C)C)NC(=O)[C@H](NC(=O)[C@@H](CCCCN)NC(=O)c2ccc3c(c2)C(=O)OC32c3ccc(O)cc3Oc3cc(O)ccc32)C(C)C)cc1)C(=O)NCc1ccc(CC(=O)N[C@H](Cc2ccccc2)C(=O)N[C@H](CCC(=O)O)C(=O)N[C@H](C(=O)NCc2ccc(CC(=O)N[C@H](Cc3ccccc3)C(=O)N[C@H](CCCNC(=N)N)C(=O)N[C@@H](C)C(=O)NCc3ccc(CC(=O)N[C@H](Cc4c[nH]c5ccccc45)C(=O)N[C@H](CCCNC(=N)N)C(=O)N[C@H](C(=O)NCc4ccc(CC(=O)N[C@H](CCC(=O)O)C(=O)N[C@H](CCCNC(=N)N)C(=O)N[C@@H](CC(C)C)C(=O)NCc5ccc(CC(=O)N[C@H](Cc6c[nH]cn6)C(=O)N[C@H](CCC(=O)O)C(=O)N[C@@H](CC(C)C)C(=O)NCc6ccc(CC(=O)N[C@H](CCCCN)C(=O)N[C@H](Cc7ccccc7)C(=O)N[C@@H](Cc7ccccc7)C(=O)NCc7ccc(CC(=O)N[C@H](Cc8ccc(O)cc8)C(=O)N[C@H](CCCNC(=N)N)C(=O)N[C@@H](Cc8ccccc8)C(=O)NCc8ccc(CC(N)=O)cc8)cc7)cc6)cc5)cc4)C(C)C)cc3)cc2)C(C)C)cc1` [TNF-39-15] (5FAM-[dK][dV]L[X1]G[dR]L[X1][dF][dE]V[X1][dF][dR]A[X1][dW][dR]V[X1][dE][dR]L[X1][dH][dE]L[X1][dK][dF]F[X1][dY][dR]F-{NHCH2C6H4(4-CH2CONH2)}), in experiment [2], the Kd was determined as 46 nM.
